From ChEMBL document CHEMBL1201862, “PubChem BioAssay data set” (2004)
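Protocol summary: plate cells (96-well), add compound at 5 concentrations, incubate 48 h, interpolate endpoints linearly. At the GI50, growth is halved.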 Calls of active or inactive are those of the source. No stated cut-off is given here; in the data, active = GI50 up to about 1.1 µM and inactive = higher.

Tests used:
Assay in all cases: growth of human tumour cells (NCI), 48 h
[1] = tested on: SNB-75
[2] = tested on: UACC-62
[3] = tested on: HL-60
[4] = tested on: SK-MEL-5
[5] = tested on: COLO 205
[6] = tested on: Malme-3M
[7] = tested on: T47D
[8] = tested on: NCI/ADR-RES
[9] = tested on: LOX IMVI
[10] = tested on: CAKI-1
[11] = tested on: BT-549
[12] = tested on: OVCAR-3
[13] = tested on: A549
[14] = tested on: NCI-H226
[15] = tested on: NCI-H522
[16] = tested on: SNB-19
[17] = tested on: MDA-MB-435
[18] = tested on: PC-3
[19] = tested on: A498
[20] = tested on: DLD-1

Row | Structure (SMILES) | GI50 [1] | GI50 [2] | GI50 [3] | GI50 [4] | GI50 [5] | GI50 [6] | GI50 [7] | GI50 [8] | GI50 [9] | GI50 [10] | GI50 [11] | GI50 [12] | GI50 [13] | GI50 [14] | GI50 [15] | GI50 [16] | GI50 [17] | GI50 [18] | GI50 [19] | GI50 [20]
1 | c1nc(NCCc2c[nH]cn2)c2nc[nH]c2n1 | 64.3 µM (inactive) | > 100 µM (inactive) | 26.7 µM (inactive) | > 100 µM (inactive) | > 100 µM (inactive) | > 100 µM (inactive) | > 100 µM (inactive) | > 100 µM (inactive) | > 100 µM (inactive) | > 100 µM (inactive) | > 100 µM (inactive) | > 100 µM (inactive) | > 100 µM (inactive) | 91.6 µM (inactive) | > 100 µM (inactive) | > 100 µM (inactive) | > 100 µM (inactive) | > 100 µM (inactive) | > 100 µM (inactive) | 
2 | CC[C@H](C)c1occ2c(O)c(C(=O)O)c(=O)cc-2c1C | 55.6 µM (inactive) | 17.3 µM (inactive) | 12.7 µM (inactive) | 18.3 µM (inactive) | 19.3 µM (inactive) | 17.5 µM (inactive) | 20.7 µM (inactive) | 20.3 µM (inactive) | 15.6 µM (inactive) | 37.8 µM (inactive) | 25.9 µM (inactive) | 19.5 µM (inactive) | 30 µM (inactive) | 33.8 µM (inactive) | 14.7 µM (inactive) | 31.7 µM (inactive) | 22.1 µM (inactive) | 33.5 µM (inactive) | 29 µM (inactive) | 
3 | O=C1N[C@H]2c3c(Cl)sc(Cl)c3C(=O)[C@H]2O1 | 19.1 µM (inactive) | 19.1 µM (inactive) | 1.79 µM (inactive) | 24 µM (inactive) | 14 µM (inactive) | 10.1 µM (inactive) | 31.6 µM (inactive) | 15.5 µM (inactive) | 3.61 µM (inactive) | 17.8 µM (inactive) | 22.3 µM (inactive) | 17.3 µM (inactive) | 36.8 µM (inactive) | 17.9 µM (inactive) | 1.68 µM (inactive) | 20.6 µM (inactive) | 14.3 µM (inactive) | 18.2 µM (inactive) | 20.2 µM (inactive) | 
4 | C[C@]12CC[C@H]3[C@@H](CC=C4C[C@@H](N5CCCC5)CC[C@@]43C)[C@@H]1C[C@H](N1CCCCC1)[C@@H]2O | > 100 µM (inactive) | > 100 µM (inactive) | 28.2 µM (inactive) | 51.1 µM (inactive) | 93.3 µM (inactive) | 42.5 µM (inactive) | > 100 µM (inactive) | > 100 µM (inactive) | 33.3 µM (inactive) | > 100 µM (inactive) | > 100 µM (inactive) | > 100 µM (inactive) | > 100 µM (inactive) | > 100 µM (inactive) | > 100 µM (inactive) | > 100 µM (inactive) | 45.4 µM (inactive) | > 100 µM (inactive) | > 100 µM (inactive) | 
5 | CS(=O)(=O)c1nc(-c2cc3c(c(S(C)(=O)=O)n2)CCCC3)cc2c1CCCC2 | 6.75 µM (inactive) | > 38.4 µM (inactive) | > 100 µM (inactive) | > 100 µM (inactive) | > 100 µM (inactive) | > 100 µM (inactive) | > 100 µM (inactive) | > 64.3 µM (inactive) | > 62.4 µM (inactive) | > 39.9 µM (inactive) | > 43.2 µM (inactive) | > 100 µM (inactive) | > 100 µM (inactive) | > 100 µM (inactive) | > 39.8 µM (inactive) | > 55.7 µM (inactive) | > 100 µM (inactive) | > 100 µM (inactive) | > 100 µM (inactive) | 
6 | CCOC(=O)c1nc2cc(C(F)(F)F)ccc2nc1Oc1ccc(C(=O)OC)cc1 | > 100 µM (inactive) | > 100 µM (inactive) | 35.1 µM (inactive) | > 100 µM (inactive) | > 100 µM (inactive) | > 100 µM (inactive) | > 100 µM (inactive) | > 100 µM (inactive) | 83.8 µM (inactive) | > 100 µM (inactive) | > 100 µM (inactive) | > 100 µM (inactive) | > 100 µM (inactive) | > 100 µM (inactive) | 69.2 µM (inactive) | > 100 µM (inactive) | > 100 µM (inactive) | > 100 µM (inactive) | > 100 µM (inactive) | 
7 | NC(CCC(=O)NC(CSCC1C(=O)Nc2ccccc21)C(=O)NCC(=O)O)C(=O)O (stereo not given) | 2.67 µM (inactive) | 8.32 µM (inactive) | 23.6 µM (inactive) | 14.8 µM (inactive) | 5.12 µM (inactive) | 6.3 µM (inactive) | 9.4 µM (inactive) | 7.53 µM (inactive) | 1.21 µM (inactive) | 4.41 µM (inactive) | 6.79 µM (inactive) | 5.62 µM (inactive) | 7.43 µM (inactive) | 7.23 µM (inactive) | 0.968 µM (active) | 44.3 µM (inactive) | 6.31 µM (inactive) | 21.6 µM (inactive) | 13.8 µM (inactive) | 
8 | NC(=O)C(Nc1ccc(Cl)cc1)c1cc2cc(Br)ccc2nc1Cl (stereo not given) | > 50 µM (inactive) | > 50 µM (inactive) | > 50 µM (inactive) | 42.2 µM (inactive) | > 50 µM (inactive) | > 50 µM (inactive) | 37.2 µM (inactive) | > 50 µM (inactive) | > 50 µM (inactive) | > 50 µM (inactive) | > 50 µM (inactive) | > 50 µM (inactive) | 30.2 µM (inactive) | > 50 µM (inactive) | 31.5 µM (inactive) | > 50 µM (inactive) | 32.7 µM (inactive) | > 50 µM (inactive) | > 50 µM (inactive) | 
9 | Cc1c2ccccc2c(C2C3C(=O)N(c4cccc5ccccc45)C(=O)C3ON2Cc2ccc(CC(N)=O)cc2)c2ccccc12 (stereo not given) | 9.55 µM (inactive) | 14.4 µM (inactive) | 16.1 µM (inactive) | 10.5 µM (inactive) | 7.78 µM (inactive) | 28.6 µM (inactive) | 15 µM (inactive) | 39.7 µM (inactive) | 18.9 µM (inactive) | 29.3 µM (inactive) | 30.2 µM (inactive) | 18.8 µM (inactive) | 16.3 µM (inactive) | 13.4 µM (inactive) | 18.9 µM (inactive) | 19.6 µM (inactive) | 17.9 µM (inactive) | 17.4 µM (inactive) | 35.6 µM (inactive) | 
10 | c1ccc2c(c1)N=c1ccccc1=P21c2ccccc2Nc2ccccc21 | 0.246 µM (active) | 0.611 µM (active) | 0.186 µM (active) | 0.188 µM (active) | 0.129 µM (active) | 0.242 µM (active) | 0.192 µM (active) | 76 µM (inactive) | 0.953 µM (active) | 2.4 µM (inactive) | 0.372 µM (active) | 0.301 µM (active) | 0.232 µM (active) | 0.577 µM (active) | 0.216 µM (active) | 0.325 µM (active) | 0.39 µM (active) | 0.242 µM (active) | 0.581 µM (active) | 
11 | CSC1(C)CC2C(CC1N1CCOCC1)C2(C)C (stereo not given) | > 100 µM (inactive) |  | > 100 µM (inactive) | > 100 µM (inactive) | > 100 µM (inactive) | > 100 µM (inactive) |  |  |  |  |  | > 100 µM (inactive) | > 100 µM (inactive) | > 100 µM (inactive) |  |  |  |  |  | > 100 µM (inactive)
12 | Cc1c(O)c(OC2OC(CO)C(O)C(O)C2O)cc2c1CC[C@@H]1C2(C)C(=O)C[C@]2(C)[C@@H]([C@@](C)(O)C(O)CCC(C)(C)O)[C@H](O)C[C@@]12C (stereo not given in full) | > 100 µM (inactive) | > 100 µM (inactive) | > 100 µM (inactive) | > 100 µM (inactive) | > 100 µM (inactive) | > 100 µM (inactive) | > 100 µM (inactive) | > 100 µM (inactive) | > 100 µM (inactive) | > 100 µM (inactive) | > 100 µM (inactive) | > 100 µM (inactive) | > 100 µM (inactive) | > 100 µM (inactive) | > 100 µM (inactive) | > 100 µM (inactive) | > 100 µM (inactive) | > 100 µM (inactive) | > 100 µM (inactive) | 
13 | Cc1cc(=O)oc2c(CN3CCCCC3)c(O)ccc12 | > 100 µM (inactive) | > 100 µM (inactive) | > 100 µM (inactive) | > 100 µM (inactive) | > 100 µM (inactive) | > 100 µM (inactive) | > 100 µM (inactive) | > 100 µM (inactive) | > 100 µM (inactive) | > 100 µM (inactive) | > 100 µM (inactive) | > 100 µM (inactive) | > 100 µM (inactive) | > 100 µM (inactive) | > 100 µM (inactive) | > 100 µM (inactive) | > 100 µM (inactive) | > 100 µM (inactive) | > 100 µM (inactive) | 
14 | COc1cccc(-c2cc(=O)c3ccc(C)nc3[nH]2)c1 | 0.0201 µM (active) | 0.0436 µM (active) | 0.0212 µM (active) | 0.036 µM (active) | 0.0277 µM (active) | 0.0403 µM (active) | 57.9 µM (inactive) | 0.0594 µM (active) | 0.0596 µM (active) | 0.0458 µM (active) | 0.299 µM (active) | 0.0219 µM (active) | 0.0728 µM (active) | 0.0434 µM (active) | 0.0448 µM (active) | 0.0592 µM (active) | < 0.01 µM (active) | 0.0361 µM (active) | 0.0405 µM (active) | 
15 | Cc1cc(=O)oc2c(C)c(O)ccc12 | > 100 µM (inactive) | 99.3 µM (inactive) | 48.6 µM (inactive) | > 100 µM (inactive) | > 100 µM (inactive) | > 100 µM (inactive) | > 100 µM (inactive) | > 100 µM (inactive) | > 100 µM (inactive) | 55.6 µM (inactive) | 35.4 µM (inactive) | > 100 µM (inactive) | > 100 µM (inactive) | > 100 µM (inactive) | > 100 µM (inactive) | > 100 µM (inactive) | > 100 µM (inactive) | > 100 µM (inactive) | 78.9 µM (inactive) | 
